Assay results as given in patent US5612319A, “Postexposure prevention of HIV infection or seroconversion” (Medivir AB, priority 1994, dated 1997).
Converted amounts (≈) assume the structure as drawn.

Legend:
SIV [1] = conditions: administered from 8 hours prior to virus inoculation; cited from earlier work
SIV [2] = conditions: prophylactically, i.e. pre-exposure administered; cited from earlier work
HIV [3] = conditions: HIV-infected individuals; cited from earlier work
HIV [4] = conditions: rapid and sustained postexposure administration of large doses; cited from earlier work
[5] = test system: lentivirus infections with HIV or SIV; conditions: administered prophylactically, prior to exposure to HIV or SIV; cited from earlier work
HIV-1, HIV-2 or SIV = conditions: until shortly after "treatment" is concluded; cited from earlier work
[6] = Cell culture tolerance in MT4 cells; assay type: cell-based, human; conditions: human; cell culture, MT4 cells; read-out: ID50 in MT4 cells
MT4 cells = experiment: Cell culture tolerance in MT4 cells; assay type: cell-based, human; conditions: cell culture results
SIV [7] = experiment: Postexposure prevention of SIV infection in macaque monkeys (Example 2, Table 1); assay type: in vivo; conditions: for Detected during 30 days post virus inoculation: SIV Ag / Detected during 30 days post virus inoculation: SIV-2 / SIV antibody detected during 30 days post inoculation: 10 mg/kg s.c. three times per day
Experimental: Inoculation: The control and test animals, 2 year old macaque monkeys were inoculated […] with either a moderate (10 monkey infectious doses MID50, as determined by Bottiger et al Antiviral Chemistry and Chemotherapy 1992;3:269-271) or a high (100 MID50) dose preparation of SIV in phosphate buffer, as listed in Table 1 below.
One or three hours after i.v. inoculation with SIV, paired test animals were injected subcutaneously with 10 mg/kg of the preparation of Example 1, repeated three times per day for 1 day or 3 days as listed in table 1. Blood samples were extracted from the test and control animals on days 0, 17, 23 and 30 for determination of SIV antibody, SIV p26 antigen and presence of infective virus. The methods have been described by Bottiger et al, AIDS Res Hum Retroviruses 1992;7:1235-1238.

[8] = In vivo simian experiments, short term toxicity; conditions: 30 mg/kg/day
[9] = 10 MID50, treatment start 1 hour post inoculation, duration 1 day, monkeys 45, 46
[10] = 10 MID50, treatment start 1 hour post inoculation, duration 3 days, monkeys 48, 49
[11] = 10 MID50, treatment start 3 hours post inoculation, duration 3 days, monkeys 54, 57
[12] = 100 MID50, treatment start 1 hour post inoculation, duration 3 days, monkeys 53, 58

For `Cc1cn([C@H]2C[C@H](F)[C@@H](CO)O2)c(=O)[nH]c1=O` [FLT, 3'-fluorothymidine], the “protection against SIV” value (SIV [1]) is listed as “may provide some protection against SIV”.

In the case of `O=C(O)P(=O)(O)O` [PFA], the “prevention of infection with SIV” value (SIV [2]) is given as “inability to prevent infection with SIV”.

For `Cc1cn([C@H]2C[C@H](N=[N+]=[N-])[C@@H](CO)O2)c(=O)[nH]c1=O` [AZT, zidovudine], the “prevention of infection with SIV” value (SIV [2]) is listed as “inability to prevent infection with SIV”, the “suppression of AIDS development or reducing viral loads” value (HIV [3]) is listed as “clinically significant action” and the “published accounts of seroconversion after accidental exposure to HIV” value (HIV [4]) is listed as 13 published accounts. For the same compound, the “effect on pattern of lentivirus infections” value [5] was “may alter the pattern of lentivirus infections” and the delay of seroconversion (HIV-1, HIV-2 or SIV) was “at most appear to delay seroconversion”.

With `Nc1ccn([C@H]2C[C@H](CO)[C@@H](CO)O2)c(=O)n1` [Example 1, 1-[2',3'-dideoxy-3'-C-(hydroxymethyl)-β-D-erythro-pentofuranosyl]-cytosine] the CC50 [6] was roughly 45 µg/mL (≈ 187 µM), the “tolerance by human cells” value (MT4 cells) was “generally well tolerated” and the “Detected during 30 days post virus inoculation: SIV Ag” value (SIV [7]; [9]) was “-”. For the same compound, the “Detected during 30 days post virus inoculation: SIV-2” value (SIV [7]; [9]) was “-”, the “SIV antibody detected during 30 days post inoculation” value (SIV [7]; [9]) was “-” and the “Detected during 30 days post virus inoculation: SIV Ag” value (SIV [7]; [10]) was “-”. The “Detected during 30 days post virus inoculation: SIV-2” value (SIV [7]; [10]) was “-”, the “SIV antibody detected during 30 days post inoculation” value (SIV [7]; [10]) was “-” and the “Detected during 30 days post virus inoculation: SIV Ag” value (SIV [7]; [11]) was “-”. The “Detected during 30 days post virus inoculation: SIV-2” value (SIV [7]; [11]) was “-”, the “SIV antibody detected during 30 days post inoculation” value (SIV [7]; [11]) was “-” and the “Detected during 30 days post virus inoculation: SIV Ag” value (SIV [7]; [12]) was “-”. For the same compound, the “Detected during 30 days post virus inoculation: SIV-2” value (SIV [7]; [12]) was “-”, the “SIV antibody detected during 30 days post inoculation” value (SIV [7]; [12]) was “-” and the “protection from 100 infectious doses of SIV” value (SIV [7]; 3 days treatment, 100 infectious doses, animals 53 and 58) was “protected the test animals from the very high dose of 100 infectious doses of SIV”. The “prevention of infection establishing itself in the test animals” value (SIV [7]; all test animals, viral antigen, antibody or virus culture in blood) was “prevented the infection establishing itself in the test animals”, the “SIV antibody or SIV antigen in test animals” value (SIV [7]; each test animal, 30 day period monitored) was “free from detectable SIV antibody or SIV antigen” and the “infectious virus cultivated from blood samples” value (SIV [7]; each test animal, day 30) was “infectious virus could not be cultivated”. For the same compound, the “protection from 10 infectious doses of SIV” value (SIV [7]; single day of treatment, 10 infectious doses) was “protected the test animals from 10 infectious doses of SIV” and the “toxicity short term in simian experiments” value [8] was “no detectable toxicity”.

For `Nc1ccn([C@H]2CC[C@@H](CO)O2)c(=O)n1` [ddC], the “prevention of infection with SIV” value (SIV [2]) is listed as “inability to prevent infection with SIV”.

For `Cc1cn([C@H]2C=C[C@@H](CO)O2)c(=O)[nH]c1=O` [d4T], the “prevention of infection with SIV” value (SIV [2]) is listed as “inability to prevent infection with SIV”.
